In patent US20260083769A1, “2-Aminopropane-1,3-Diol-Capped Cationic Peptoids for Nucleic Acid Delivery” (NUTCRACKER THERAPEUTICS, INC., priority 2022, published 2026):
Like-named read-outs stand apart in the source and are kept apart here. Where a SMILES comes first, the peptide text is derived from it. [ ]: non-standard residue; d: D form. Gly(Nα-oleyl) = CCCCCCCC/C=C\CCCCCCCCNCC(=O)O; N(2-ethylhexyl)Gly = CCCCC(CC)CNCC(=O)O; Gly(N-dodecyl) = CCCCCCCCCCCCNCC(=O)O; N(CH(CH2OH)2)Gly = O=C(O)CNC(CO)CO; N(octyl)Gly = CCCCCCCCNCC(=O)O; NDecylGly = CCCCCCCCCCNCC(=O)O

What was measured:
[1] = Particle size and polydispersity (PDI) of delivery vehicles by dynamic light scattering; assay type: physicochemical
Experimental: The resulting delivery vehicle complexes were evaluated by dynamic light scattering (DLS) to determine the volume average particle size/diameter (nm) and the size polydispersity index (PDI) within the delivery vehicle complex.
Particle size. Particle sizes and size distributions were measured using a Wyatt DynaPro® Plate Reader III. In general, formulated samples were diluted to 2 ng/μL in 100 µL PBS. Data is reported as the hydrodynamic diameter (in nm) of the cumulant fit of the correlation function, and the polydispersity of that measurement.
(§1) In one particular instance, the size and polydispersity (PDI) of delivery vehicles was measured by dynamic light scattering in PBS using a DynaPro® plate reader III. The zeta potential of delivery vehicles was determined using Nano-ZS™ particle analyzer. Zeta sample was diluted to 30 uM total lipid in a weakly buffered solution of 10 mM HEPES, 10 mM MES, 10 mM ammonium acetate pH 7. Measurements were collected in duplicate for over 30 run with the voltage manually set to […]

[2] = Percent encapsulated mRNA, RiboGreen assay; assay type: physicochemical
Experimental: Percent encapsulation. The percentage of mRNA encapsulated within the delivery vehicle complexes containing Fluc mRNA was determined using a modified RiboGreen® assay. In general, formulated mRNA samples were diluted to 500 ng/ml in Tris-EDTA buffer with or without Triton-X™. RiboGreen® (Invitrogen) was added at a 200-fold dilution, and the plate was incubated for 5 minutes. Fluorescence was measured at Ex. […]/Em. 520 nm and encapsulated mRNA was calculated by taking the ratio of fluorescence for non-lysed particles versus lysed particles.
The mRNA concentration and the percentage of encapsulated mRNA were determined using a fluorescence-based Quant-iT™ RiboGreen® RNA Reagent Kit using a literature procedure. To determine the mRNA concentration, delivery vehicles were incubated with 2% Triton™ X-100 for 10 min to release entrapped mRNA, followed by addition of RiboGreen® RNA reagent. The fluorescence intensity of mRNA-RiboGreen® reagent complex (excitation at 485 nm and emission at 530 nm) was detected using a microplate reader. The ratio of fluorescence without and with Triton™ X-100 were used to calculate the percentage of encapsulated mRNA.

[3] = Zeta potential of delivery vehicles; assay type: physicochemical; settings: Table 5; delivery vehicle, pH 7 buffer; in mV (unit assumed)
Experimental: as §1

[4] = Apparent particle pKa, TNS fluorescence assay; assay type: physicochemical; settings: Table 5; apparent particle pKa of delivery vehicle
Experimental: The apparent particle pKa was assessed by a TNS fluorescence assay. Briefly, particles were diluted to 130 uM total lipid in TNS buffer ranging in pH 3-11 for 10 minutes with […] of TNS probe. The fluorescence was measured at room temperature in a plate reader ex 320/em 445. Fluorescence intensity was normalized to the minimal and maximal values and the pKa was determined by a 3 parameter fit to determine the half maximum of the curve.

[5] = RBC hemolysis as metric for fusogenicity; assay type: cell-based; settings: sheep red blood cells (RBCs), 5% v/v
Experimental: RBC hemolysis was used as a metric for fusogenicity of LNPs at low pH. […] Particles were diluted to […] total lipid in well with 5% RBC solution and incubated at 37° C. for 45 min. Supernatant was collected and absorbance read on a microplate reader at 425 nm. Fusion was normalized to a fully lysed sample with 2% Triton™ and a buffer-only control. % hemolysis=100*[(ABS T-background)−(ABS sample-background)/(ABS T-background)].

[6] = Table 5, delivery vehicle comprising the peptoid, Formulation D22, fLuc mRNA
[7] = Table 5, delivery vehicle, 37° C. 45 min, pH 5, read-out: Hemolysis at pH 5
[8] = Table 5, delivery vehicle, 37° C. 45 min, pH 7, read-out: Hemolysis at pH 7
[9] = Table 6, comparative peptoid delivery vehicle

Structure (SMILES) | PDI [1, 6] | Particle Size (nm) [1, 6] | % Encapsulation [2, 6] | Zeta Potential [3] | pKa (TNS) [4] | hemolysis at 45 min, 150 mM total lipid [5, 7] | hemolysis at 45 min, 150 mM total lipid [5, 8] | PDI [1, 9] | Particle Size (nm) [1, 9] | % Encapsulation [2, 9] | hemolysis at 45 min, 150 mM total lipid ([5]; Table 6, comparative peptoid delivery vehicle, pH 5, read-out: Hemolysis at pH 5) | hemolysis at 45 min, 150 mM total lipid ([5]; Table 6, comparative peptoid delivery vehicle, pH 7, read-out: Hemolysis at pH 7)
CCCCCCCCN(CC(N)=O)C(=O)CN(CCCCCC)C(=O)CN(CCCCCC)C(=O)CN(CCCCCC)C(=O)CN(CCCCCC)C(=O)CN(CCCCCC)C(=O)CN(CCCCCC)C(=O)CN(CCCCCCCC)C(=O)CNC(CO)CO [Compound 10] | 0.3 | 122.5 nm | 97.0% | −2.71 | 6.052 | 1.1% | 0% |  |  |  |  | 
CCCCCCCCCCCCN(CC(=O)N(CCCCCCCCCCCC)CC(=O)N(CC(=O)N(CCCCCCCCCCCC)CC(=O)N(CCCCCCCCCCCC)CC(=O)N(CC(N)=O)CC(CC)CCCC)CC(CC)CCCC)C(=O)CNC(CO)CO (centres unmarked) [Compound 30] (H-[N(CH(CH2OH)2)Gly][Gly(N-dodecyl)][Gly(N-dodecyl)][N(2-ethylhexyl)Gly][Gly(N-dodecyl)][Gly(N-dodecyl)][N(2-ethylhexyl)Gly]-NH2) | 0.097 | 82.6 nm | 87.7% | −1.41 | 6.084 | 17.3% | 2.1% |  |  |  |  | 
CCCCCCCCCCN(CC(N)=O)C(=O)CN(CCCCCCCCCC)C(=O)CN(CCCCCCCCCC)C(=O)CN(CCCCCCCCCC)C(=O)CNC(CO)CO [Compound 37] | Multimodal | 181.4 nm | 56.4% | −0.676 | 6.418 | 7.8% | 23.9% |  |  |  |  | 
CCCCCCCCCCCCN(CC(N)=O)C(=O)CN(CCCCCCCCCCCC)C(=O)CN(CCCCCCCCCCCC)C(=O)CN(CCCCCCCCCCCC)C(=O)CN(CCCCCCCCCCCC)C(=O)CN(CCCCCCCCCCCC)C(=O)CNC(CO)CO [Compound 16] (H-[N(CH(CH2OH)2)Gly][Gly(N-dodecyl)][Gly(N-dodecyl)][Gly(N-dodecyl)][Gly(N-dodecyl)][Gly(N-dodecyl)][Gly(N-dodecyl)]-NH2) | 0.24 | 93.1 nm | 30.6% | −3.58 | 5.554 | 4.1% | 2.2% |  |  |  |  | 
CCCCCCCCCCCCN(CC(=O)N(CCCCCC)CC(N)=O)C(=O)CN(CCCCCCCCCCCC)C(=O)CN(CC(CC)CCCC)C(=O)CN(CCCCCC)C(=O)CN(CCCCCCCCCCCC)C(=O)CN(CCCCCCCCCCCC)C(=O)CN(CC(CC)CCCC)C(=O)CNC(CO)CO (centres unmarked) [Compound 17] | 0.11 | 96.7 nm | 50.3% | −17.8 | 5.656 | 2.1% | 0.3% |  |  |  |  | 
CCCCCCCC/C=C\CCCCCCCCN(CC(N)=O)C(=O)CN(CCCCCCCCCC)C(=O)CN(CCCCCCCC/C=C\CCCCCCCC)C(=O)CNC(CO)CO [Compound 7] (H-[N(CH(CH2OH)2)Gly][Gly(Nα-oleyl)][NDecylGly][Gly(Nα-oleyl)]-NH2) | 0.13 | 62.3 nm | 86.3% | −2.31 | 6.283 | 6.1% | 23.8% |  |  |  |  | 
CCCCCCCC/C=C\CCCCCCCCN(CC(N)=O)C(=O)CN(CCCCCCCC)C(=O)CN(CCCCCCCC/C=C\CCCCCCCC)C(=O)CNC(CO)CO [Compound 20] (H-[N(CH(CH2OH)2)Gly][Gly(Nα-oleyl)][N(octyl)Gly][Gly(Nα-oleyl)]-NH2) | 0.18 | 65.4 nm | 70.1% | 3.41 | 5.773 | 16.7% | 33.3% |  |  |  |  | 
CCCCCCCCCCN(CC(=O)N(CCCCCCCCCC)CC(=O)N(CC(=O)N(CCCCCCCCCC)CC(=O)N(CCCCCCCCCC)CC(=O)N(CC(N)=O)CC(CC)CCCC)CC(CC)CCCC)C(=O)CNC(CO)CO (centres unmarked) [Compound 29] (H-[N(CH(CH2OH)2)Gly][NDecylGly][NDecylGly][N(2-ethylhexyl)Gly][NDecylGly][NDecylGly][N(2-ethylhexyl)Gly]-NH2) | 0.094 | 92.7 nm | 81.9% | −7.04 | 6.044 | 4.8% | 1.3% |  |  |  |  | 
CCCCCCCCCCCCN(CC(=O)N(CCCCCCCCCC)CC(=O)N(CCCCCCCCCCCC)CC(=O)N(CCCCCCCCCC)CC(N)=O)C(=O)CNC(CO)CO [Compound 22] | 0.179 | 51.5 nm | 83.3% | 4.24 | 5.888 | 58.9% | 81.5% |  |  |  |  | 
CCCCCCCCCCN(CC(N)=O)C(=O)CN(CCCCCCCCCC)C(=O)CN(CCCCCCCCCC)C(=O)CN(CC(CC)CCCC)C(=O)CN(CCCCCCCCCC)C(=O)CN(CCCCCCCCCC)C(=O)CN(CCCCCCCCCC)C(=O)CN(CC(CC)CCCC)C(=O)CNC(CO)CO (centres unmarked) [Compound 8] |  |  |  |  | 5.786 | 0.5% | -0.1% |  |  |  |  | 
CCCCCCCCCCCCN(CC(N)=O)C(=O)CN(CCCCCCCCCCCC)C(=O)CN(CCCCCCCCCCCC)C(=O)CN(CCCCCCCCCCCC)C(=O)CNCCN(C)C [Compound C13, reference compound] |  |  |  |  |  |  |  | 0.180 | 57.6 nm | 95.4% | -12.3% | 8.2%
CCCCCCCCCCN(CC(N)=O)C(=O)CN(CC(CC)CCCC)C(=O)CN(CCCCCCCCCC)C(=O)CN(CCCCCCCCCC)C(=O)CN(CC(CC)CCCC)C(=O)CN(CCCCCCCCCC)C(=O)CNC(CO)CO (centres unmarked) [Compound 43] (H-[N(CH(CH2OH)2)Gly][NDecylGly][N(2-ethylhexyl)Gly][NDecylGly][NDecylGly][N(2-ethylhexyl)Gly][NDecylGly]-NH2) | Multimodal | 2058.2 nm |  | −6.37 | 4.595 | 1.2% | 0.2% |  |  |  |  | 
